Source: ChEMBL document CHEMBL4052645, “Discovery of potent and efficacious pyrrolopyridazines as dual JAK1/3 inhibitors” (Bioorg Med Chem Lett, 2017)

Key:
[1] = target: Tyrosine-protein kinase JAK1 (Homo sapiens, UniProt P23458); test: Inhibition of human JAK1 (V856 to K1154 residues) expressed in bacterial expression system assessed as residual activity at 50 nM by KINOMEscan assay relative to control
[2] = target: Ribosomal protein S6 kinase alpha-6 (Homo sapiens) (UniProt Q9UK32); test: Inhibition of human N-terminal RSK4 kinase domain 1 (M1 to E397 residues) expressed in mammalian expression system assessed as residual activity at 50 nM by KINOMEscan assay relative to control
[3] = target: Leucine-rich repeat serine/threonine-protein kinase 2 (Homo sapiens) (UniProt Q5S007); test: Inhibition of wild-type human partial length LRRK2 (H970 to E2527 residues) expressed in mammalian expression system assessed as residual activity at 50 nM by Kinomescan method relative to control
[4] = target: SRSF protein kinase 3 (Homo sapiens) (UniProt Q9UPE1); test: Inhibition of wild-type human partial length MSSK1 (P41 to P567 residues) expressed in bacterial expression system assessed as residual activity at 50 nM by Kinomescan method relative to control
[5] = target: Cyclin-dependent kinase 18 (Homo sapiens) (UniProt Q07002); test: Inhibition of wild-type human full length PCTAIRE3 (M3 to F474 residues) expressed in bacterial expression system assessed as residual activity at 50 nM by Kinomescan method relative to control
[6] = target: Hormonally up-regulated neu tumor-associated kinase (Homo sapiens) (UniProt P57058); test: Inhibition of wild-type human partial length HUNK (A31 to K354 residues) expressed in bacterial expression system assessed as residual activity at 50 nM by Kinomescan method relative to control
[7] = target: Activated CDC42 kinase 1 (Homo sapiens) (UniProt Q07912); test: Inhibition of wild-type human partial length ACK (S159 to D474 residues) expressed in bacterial expression system assessed as residual activity at 50 nM by Kinomescan method relative to control
[8] = target: Ribosomal protein S6 kinase alpha-1 (Homo sapiens) (UniProt Q15418); test: Inhibition of wild-type human partial length C-terminal RSK1 […] (P360 to L681 residues) expressed in bacterial expression system assessed as residual activity at 50 nM by Kinomescan method relative to control
[9] = target: Serine/threonine-protein kinase PLK3 (Homo sapiens) (UniProt Q9H4B4); test: Inhibition of wild-type human partial length PLK3 (A42 to L334 residues) expressed in mammalian expression system assessed as residual activity at 50 nM by Kinomescan method relative to control
[10] = target: Tyrosine-protein kinase receptor UFO (Homo sapiens) (UniProt P30530); test: Inhibition of wild-type human partial length AXL (R497 to Y821 residues) expressed in bacterial expression system assessed as residual activity at 50 nM by Kinomescan method relative to control
[11] = target: Cyclin-G-associated kinase (Homo sapiens) (UniProt O14976); test: Inhibition of wild-type human partial length GAK (G13 to Y338 residues) expressed in bacterial expression system assessed as residual activity at 50 nM by Kinomescan method relative to control
[12] = target: Serine/threonine-protein kinase PLK1 (Homo sapiens) (UniProt P53350); test: Inhibition of wild-type human partial length PLK1 (A33 to F325 residues) expressed in mammalian expression system assessed as residual activity at 50 nM by Kinomescan method relative to control
[13] = target: Serine/threonine-protein kinase pim-1 (Homo sapiens) (UniProt P11309); test: Inhibition of wild-type human partial length PIM1 (A15 to K313 residues) expressed in bacterial expression system assessed as residual activity at 50 nM by Kinomescan method relative to control
[14] = target: Wee1-like protein kinase (Homo sapiens) (UniProt P30291); test: Inhibition of wild-type human partial length WEE1 (M291 to K575 residues) expressed in bacterial expression system assessed as residual activity at 50 nM by Kinomescan method relative to control
[15] = target: Tyrosine-protein kinase Fyn (Homo sapiens) (UniProt P06241); test: Inhibition of wild-type human partial length FYN (T243 to L534 residues) expressed in bacterial expression system assessed as residual activity at 50 nM by Kinomescan method relative to control
[16] = target: ALK tyrosine kinase receptor (Homo sapiens) (UniProt Q9UM73); test: Inhibition of wild-type human partial length ALK (I1088 to E1409 residues) expressed in mammalian expression system assessed as residual activity at 50 nM by Kinomescan method relative to control
[17] = target: Calcium/calmodulin-dependent protein kinase type II subunit delta (Homo sapiens) (UniProt Q13557); test: Inhibition of wild-type human partial length CAMK2D (M1 to E329 residues) expressed in bacterial expression system assessed as residual activity at 50 nM by Kinomescan method relative to control
[18] = target: Dual specificity protein kinase CLK1 (Homo sapiens) (UniProt P49759); test: Inhibition of wild-type human full length CLK1 (M1 to I484 residues) expressed in bacterial expression system assessed as residual activity at 50 nM by Kinomescan method relative to control
[19] = target: Ephrin type-B receptor 3 (Homo sapiens) (UniProt P54753); test: Inhibition of wild-type human partial length EPHB3 (Q599 to T928 residues) expressed in bacterial expression system assessed as residual activity at 50 nM by Kinomescan method relative to control
[20] = target: Fibroblast growth factor receptor 3 (Homo sapiens) (UniProt P22607); test: Inhibition of wild-type human partial length FGFR3 (R442 to S771 residues) expressed in bacterial expression system assessed as residual activity at 50 nM by Kinomescan method relative to control
[21] = target: Mitogen-activated protein kinase kinase kinase 10 (Homo sapiens) (UniProt Q02779); test: Inhibition of wild-type human partial length MLK2 (V52 to W380 residues) expressed in bacterial expression system assessed as residual activity at 50 nM by Kinomescan method relative to control
[22] = target: Ribosomal protein S6 kinase alpha-5 (Homo sapiens) (UniProt O75582); test: Inhibition of wild-type human partial length N-terminal MSK1 kinase domain 1 expressed in bacterial expression system assessed as residual activity at 50 nM by Kinomescan method relative to control
[23] = target: Serine/threonine-protein kinase SBK1 (Homo sapiens) (UniProt Q52WX2); test: Inhibition of wild-type human partial length SBK1 (P23 to P348 residues) expressed in mammalian expression system assessed as residual activity at 50 nM by Kinomescan method relative to control
[24] = target: STE20/SPS1-related proline-alanine-rich protein kinase (Homo sapiens) (UniProt Q9UEW8); test: Inhibition of wild-type human partial length STLK3 (P43 to I357 residues) expressed in mammalian expression system assessed as residual activity at 50 nM by Kinomescan method relative to control
[25] = target: Tyrosine-protein kinase TXK (Homo sapiens) (UniProt P42681); test: Inhibition of wild-type human partial length TXK (L238 to W527 residues) expressed in bacterial expression system assessed as residual activity at 50 nM by Kinomescan method relative to control

CC1(C)[C@H](Nc2c(C(N)=O)cnn3cc(-c4ccccc4)cc23)CC[C@]1(C)N
Activity [1]: 1.4% | Activity [2]: 14% | Activity [3]: 21% | Activity [4]: 56% | Activity [5]: 58% | Activity [6]: 65% | Activity [7]: 73% | Activity [8]: 81% | Activity [9]: 89% | Activity [10]: 90% | Activity [11]: 91% | Activity [12]: 94% | Activity [13]: 96% | Activity [14]: 97% | Activity [15]: 99% | Activity [16]: 100% | Activity [17]: 100% | Activity [18]: 100% | Activity [19]: 100% | Activity [20]: 100% | Activity [21]: 100% | Activity [22]: 100% | Activity [23]: 100% | Activity [24]: 100% | Activity [25]: 100%

COc1ccc(-c2cc3c(N[C@@H]4CC[C@](C)(N)C4(C)C)c(C(N)=O)cnn3c2)cn1
Activity [1]: 9% | Activity [2]: 46% | Activity [3]: 25% | Activity [4]: 100% | Activity [5]: 100% | Activity [6]: 100% | Activity [7]: 100% | Activity [8]: 100% | Activity [9]: 95% | Activity [10]: 96% | Activity [11]: 100% | Activity [12]: 100% | Activity [13]: 93% | Activity [14]: 100% | Activity [15]: 100% | Activity [16]: 94% | Activity [17]: 100% | Activity [18]: 97% | Activity [19]: 100% | Activity [20]: 82% | Activity [21]: 94% | Activity [22]: 100% | Activity [23]: 72% | Activity [24]: 84% | Activity [25]: 100%
